{"source": "patent EP0974351A2", "about": "“Medicament for preventing and treating gastrointestinal damage” (JOUVEINAL, priority 1998, dated 2000)", "key": {"[1]": {"system": "TNBS-Induced Chronic Colonic Allodynia", "test": "TNBS-induced chronic colonic allodynia in rats (colonic distension threshold)", "format": "in vivo, Male Sprague-Dawley rats", "details": "for Colonic Threshold: TNBS-treated rats, control 43.39, TNBS alone printed 1781; for dose relation of the inhibition of TNBS-induced colonic allodynia: gabapentin 100, 300, 500 mg/kg sc, CI-1008 30, 60, 100, 200 mg/kg sc; for colonic inflammatory effect of TNBS (colon weight, area of hyperemia and necrosis, colonic myeloperoxidase content): sc 30 minutes before measurement, Day 7 after TNBS", "protocol": "GABA analogs were evaluated in rats suffering from chronic visceral allodynia induced by trinitrobenzene sulfonic acid (TNBS).\nIn humans, digestive disorders are often associated with visceral pain. In these pathologies, the visceral pain threshold is decreased, indicating a visceral hypersensitivity. Consequently, the following study was designed to evaluate the effect of injection of TNBS into the colon on visceral pain threshold in an experimental model of colonic distension.\nMale Sprague-Dawley rats weighing 340 to 400 g were used in the study. The animals were housed three per cage in a regulated environment (20 ± 1°C, 50 ± 5% humidity, with light 8:00 AM to 8:00 PM). Under anethesia (ketamine 80 mg/kg i.p.; acepromazin 12 mg/kg i.p.), TNBS (50 mg/kg), or saline (1.5 mL/kg) was injected into the proximal colon (1 cm from the cecum). After the surgery, animals were individually housed in the regulated environment.\nA balloon catheter (5-6 cm length) was inserted through the anus into the colon and kept in position (tip of balloon 5 cm from the anus) by taping the catheter to the base of the tail. The balloon was progressively inflated by step of 5 mm Hg, from 0 to 75 mm Hg, each step of inflation lasting 30 seconds. Each cycle of colonic distension was controlled by a standard barostat. The threshold corresponds to the pressure which produced the first abdominal contraction, at which time the cycle of distension was discontinued. To determine the colonic threshold, four cycles of distension were performed on the same animal.\nIn a second series, a group of eight rats treated with TNBS were subjected to a colonic distension session.\nIn a third series, a group of eight rats treated with TNBS received a subcutaneous (sc) injection of gabapentin or CI-1008 30 minutes prior to initiation of the colonic distension cycle.\nAll test compounds were dissolved in saline except TNBS. TNBS was dissolved in EtOH 30% (w/v). Subcutaneous injection of vehicle was given in a volume of […].\nStatistical significance between each group was determined using a one-way ANOVA followed by Student's unpaired t-test. Differences were considered statistically significant at p <0.05.\nPain threshold (pressure of distension inducing the first abdominal contraction) after distal colonic distension was determined at Day 7 in two groups of awake rats: control animals and TNBS-treated animals. […] Inflammatory parameters (colon weight, area of hyperemia and necrosis and colonic myeloperoxidase content) were measured in the proximal colon at Day 7 after TNBS treatment.\nGabapentin (100, 300, and 500 mg/kg sc) and CI-1008 (30, 60, 100, and 200 mg/kg sc) were administered 30 minutes before colonic distension and measurement of the inflammatory parameters."}, "[2]": {"system": "gastric damage induced by indomethacin", "test": "Indomethacin (80 mg/kg) gastric damage in rats, percent of gastric area damaged by image analysis", "format": "in vivo, Male CD-Sprague-Dawley rats", "details": "indomethacin + vehicle 5.56 ± 0.48", "protocol": "The following test in rats was carried out to further establish the ability of gabapentin and Pregabalin to reduce the gastrointestinal damage caused by NSAIDS.\nMale CD-Sprague-Dawley rats (132-202 g) were received and housed in a room with controlled temperature, humidity, and 12-hour light/dark cycle. After a period of acclimatization of 4 to 5 days, and after a 24-hour food fasting period, animals were used for the study described below.\nGabapentin or pregabalin (CI-1008) were dissolved in water and administered orally at the following doses: 1, 10, 100, and 200 mg/kg in a volume of 1 mL. Control animals were dosed with an equal volume of vehicle (1 mL of water). Sixty minutes later, all the animals received 1 mL of a solution of 80 mg/kg indomethacin dissolved in 5% aqueous NaHCO3. Control animals received 1 mL of 5% aqueous NaHCO3 orally. Experimental groups were as follows:\nAnimals were sacrificed by decapitation 4 hours post-indomethacin administration. The stomach was removed and opened along the greater curvature and its image digitized and stored on an optical disk using a 486-based PC computer equipped with CUE3 system imaging analysis software (Olympus Corp., Marietta, Georgia, USA). Two 6-mm biopsies were taken from a constant region of the gastric mucosa located in each side of the glandular portion of the stomach and their PGE2 content was measured using a commercially available ELISA kit (Assay Designs Inc., Ann Arbor, Michigan, USA). The presence of gastric damage was determined using the retrieved electronic image, and the extent of damage was measured using the CUE3 imaging software. Data are expressed as a percent of gastric area damaged and the PGE2 content (pg/mL)."}, "[3]": {"details": "1 mg/kg orally 60 min before indomethacin 80 mg/kg, 4 hours post-indomethacin, average ± standard error"}, "[4]": {"details": "10 mg/kg orally 60 min before indomethacin 80 mg/kg"}, "[5]": {"details": "100 mg/kg orally 60 min before indomethacin 80 mg/kg"}, "[6]": {"details": "200 mg/kg orally 60 min before indomethacin 80 mg/kg"}}}
{"smiles": "NCC1(CC(=O)O)CCCCC1", "note": "[Gabapentin, 1-(aminomethyl)-cyclohexane acetic acid]", "values": [{"measurement": "Colonic Threshold", "setting": "[1]; 100 mg/kg sc", "result": 22.03, "unit": "mm Hg"}, {"measurement": "Colonic Threshold", "setting": "[1]; 300 mg/kg sc", "result": 24.69, "unit": "mm Hg"}, {"measurement": "effect of TNBS on colonic pain (in words)", "setting": "[1]; 500 mg/kg sc", "result": "completely blocked"}, {"measurement": "Colonic Threshold", "setting": "[1]; 500 mg/kg sc", "result": 36.88, "unit": "mm Hg"}, {"measurement": "dose relation of the inhibition of TNBS-induced colonic allodynia", "setting": "[1]", "result": "inhibited in a dose-related manner"}, {"measurement": "colonic inflammatory effect of TNBS (colon weight, area of hyperemia and necrosis, colonic myeloperoxidase content)", "setting": "[1]", "result": "neither gabapentin nor CI-1008 inhibited"}, {"measurement": "% Area Damaged", "setting": "[2]; [3]", "result": "2.99 ± 0.46", "unit": "%"}, {"measurement": "% Area Damaged", "setting": "[2]; [4]", "result": "3.96 ± 0.35", "unit": "%"}, {"measurement": "% Area Damaged", "setting": "[2]; [5]", "result": "1.87 ± 0.1", "unit": "%"}, {"measurement": "% Area Damaged", "setting": "[2]; [6]", "result": "1.43 ± 0.40", "unit": "%"}]}
{"smiles": "CC(C)C[C@H](CN)CC(=O)O", "note": "[CI-1008, (S)-3-(aminomethyl)-5-methylhexanoic acid]", "values": [{"measurement": "Colonic Threshold", "setting": "[1]; 30 mg/kg sc 30 min before colonic distension, Day 7", "result": 2172, "unit": "mm Hg"}, {"measurement": "Colonic Threshold", "setting": "[1]; 60 mg/kg sc", "result": 2547, "unit": "mm Hg"}, {"measurement": "allodynia induced by TNBS (in words)", "setting": "[1]; 100 mg/kg sc", "result": "completely suppressed"}, {"measurement": "Colonic Threshold", "setting": "[1]; 100 mg/kg sc", "result": 33.13, "unit": "mm Hg"}, {"measurement": "Colonic Threshold", "setting": "[1]; 200 mg/kg sc", "result": 40.47, "unit": "mm Hg"}, {"measurement": "dose relation of the inhibition of TNBS-induced colonic allodynia", "setting": "[1]", "result": "dose-related inhibition"}, {"measurement": "colonic inflammatory effect of TNBS (colon weight, area of hyperemia and necrosis, colonic myeloperoxidase content)", "setting": "[1]", "result": "neither gabapentin nor CI-1008 inhibited"}, {"measurement": "% Area Damaged", "setting": "[2]; [3]", "result": "8.07 ± 2.19", "unit": "%"}, {"measurement": "% Area Damaged", "setting": "[2]; [4]", "result": "4.07 ± 0.42", "unit": "%"}, {"measurement": "% Area Damaged", "setting": "[2]; [5]", "result": "1.99± 0.25", "unit": "%"}, {"measurement": "% Area Damaged", "setting": "[2]; [6]", "result": "0.34 ± 0.06", "unit": "%"}]}
